Test results from PubChem BioAssay (NCI).
Where “and” joins values, the source holds several entries; their conditions need not be identical. Equal entries are not always repeated.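 Growth conditions: 96-well plates. Treatment: test compound, 48 hours, 5 concentrations. Analysis: linear interpolation between bracketing concentrations; unreached endpoints set to highest concentration. The concentration for 50% growth inhibition is given as GI50. The concentration for full growth arrest is given as TGI.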

Key:
Assay in all cases: DTP human tumour cell line panel, 48 h
[1] = tested on: RXF 393 renal
[2] = tested on: ACHN renal
[3] = tested on: TK-10 renal
[4] = tested on: SW-620 colon
[5] = tested on: HS 578T breast
[6] = tested on: UACC-257 melanoma
[7] = tested on: MOLT-4 leukemia
[8] = tested on: LOX IMVI melanoma
[9] = tested on: NCI-H522 lung
[10] = tested on: BT-549 breast

| SMILES | GI50 [1] [nM] | TGI [1] [µM] | GI50 [2] | TGI [2] | GI50 [3] | TGI [3] | GI50 [4] [nM] | TGI [4] [µM] | GI50 [5] | TGI [5] | GI50 [6] [µM] | TGI [6] [µM] | GI50 [7] [nM] | TGI [7] [µM] | GI50 [8] [nM] | TGI [8] [µM] | GI50 [9] [nM] | TGI [9] [µM] | GI50 [10] [nM] | TGI [10] [µM] |
| --- | --- | --- | --- | --- | --- | --- | --- | --- | --- | --- | --- | --- | --- | --- | --- | --- | --- | --- | --- | --- |
| Cc1cc(S(=O)(=O)/N=C(\N)n2nc(C)c(C)c2C)c(SCc2ccccc2)cc1Cl | 58600 | > 100 | > 100000 nM | > 100 µM | > 100 µM | > 100 µM | 72700 | > 100 | > 100000 nM | > 100 µM | 63.8 | > 100 | 3520 | > 100 | > 100000 | > 100 | > 100000 | > 100 | > 100000 | > 100 |
| Nc1c(C(=O)Nc2cccc3ccccc23)sc2nc3c(cc12)CCCCC3 | 992 | > 50 | 2590 nM | > 50 µM | 43.4 µM | > 50 µM | 538 | > 50 | 350 nM | > 50 µM | 17.1 | > 50 | 418 | > 50 | 909 | > 50 | 724 | 4.7 | 549 | 3.75 |
| CNC(=O)c1ccc(Nc2nc(OC3CCCC3)c3c(-c4ccc5nc(C)oc5c4)c[nH]c3n2)c(OC)c1 | > 100000 | > 100 | 438 nM | > 100 µM | > 68.7 µM | > 100 µM | 121 | > 100 | 31500 nM | > 100 µM | > 100 | > 100 | 1630 | > 100 | 381 | > 100 | 1670 | > 100 | 2040 | > 100 |
| Nc1ccn(C2OC(COP(=O)(O)O)C(O)C2O)c(=O)n1 (configuration not stated) |  | > 94.7 |  | > 41.4 µM |  | > 100 µM |  | > 100 |  | > 100 µM |  | > 100 |  | 13.2 |  | > 100 |  | > 100 |  | > 100 |
| C[C@@H](Oc1cc(-c2cnn(C3CC4(CCNCC4)C3)c2)cnc1N)c1c(F)ccc(Cl)c1Cl | 1350 | 2.73 | 2000 nM | 7.54 µM | 1.85 µM | 4.7 µM | 537 | 2.33 | 1370 nM | 4.15 µM | 1.47 | 2.99 | 1290 | 5.82 | 1220 | 2.56 | 1480 | 3.12 | 1750 | 3.78 |
| COc1ccc(C(=O)c2ccc(OC)cc2OC)cc1 | 1560 | 6.15 | 6260 nM | > 100 µM | 5.01 µM | > 100 µM | 2960 | > 100 | 3500 nM | 31.4 µM | 5 | > 100 | 4900 | > 100 | 4470 | > 100 | 1060 | 4.38 | 4060 | > 100 |
| COc1cc(-c2ccc(-[n+]3nc(-c4ccc([N+](=O)[O-])cc4)nn3-c3ccc([N+](=O)[O-])cc3)c(OC)c2)ccc1-[n+]1nc(-c2ccc([N+](=O)[O-])cc2)nn1-c1ccc([N+](=O)[O-])cc1 | 2250 | 6.08 | 4160 nM | 19.2 µM | 4.61 µM | 17.5 µM | 2990 | 25.1 | 1930 nM | 5.07 µM | 2.83 | 12 | 2980 | > 82 | 347 | 10.1 | 672 | 7.71 | 6210 | 70.8 |
| CCOC(=O)c1ccc2[nH]c(Cc3[nH]c4ccc(C(=O)OCC)cc4c3C)c(C)c2c1 | 2750 | 14.7 | 2280 nM | 15.8 µM | 4.28 µM | 17.4 µM | 1410 | 15.6 | 3290 nM | 23.1 µM | 9.4 | 46.1 | 1830 | 26.8 | 384 | 5.72 | 3270 | 19.2 | 11600 | 37 |
| Cc1cccc(Oc2ccc(Nc3ncnc4ccc(NC(=O)CN5CCN(C)CC5)cc34)cc2Cl)c1 | 1610 | 3.09 | 655 nM | 1.96 µM | 0.701 µM | 2.24 µM | 1690 | 3.27 | 1770 nM | 4.28 µM | 1.9 | 3.85 |  |  | 1700 | 3.18 |  |  | 1450 | 2.81 |
| CC(=O)O[C@H]1C(=O)[C@@]2(C)[C@H]([C@H](OC(=O)c3ccccc3)[C@]3(O)C[C@H](OC(=O)[C@H](OC(=O)CCC(=O)OC4CCC(S/N=C(N)/N=C(\N)N(C)C)CC4)[C@@H](NC(=O)c4ccccc4)c4ccccc4)C(C)=C1C3(C)C)[C@]1(OC(C)=O)CO[C@@H]1C[C@@H]2O (some centres not stated) | 13.5 | > 50 | 110 nM | > 50 µM | 0.0205 µM | 1.65 µM | 11.9 | > 50 | 10 nM |  | 0.0846 | > 50 | 15.4 | > 50 | 7.48 | > 50 | 5.53 | 0.0373 | 21.9 | > 50 |
| C=C1C(=O)O[C@H]2[C@H]1CC/C(Cn1cc(Cn3ccc4cc(Cl)ccc43)nn1)=C\CC[C@@]1(C)O[C@@H]21 | 1170 | 2.46 | 1240 nM | 2.5 µM | 1.67 µM | 3.11 µM | 1130 | 2.78 | 2500 nM | 6.68 µM | 1.7 | 3.61 | 599 | 3.16 | 1310 | 2.88 | 1260 | 2.87 | 1610 | 3.3 |
| Nc1nc(F)nc2c1ncn2C1OC(COP(=O)(O)O)C(O)C1O (configuration not stated) |  | 413 |  | 247 µM |  | 773 µM |  | 675 |  | 379 µM |  | 813 |  | 224 |  | 334 |  | 740 |  | 302 |
| C=C1C(=O)O[C@H]2[C@H]1CC/C(COC(=O)N[C@@H](Cc1c[nH]c3ccccc13)C(=O)OC)=C\CC[C@@]1(C)O[C@@H]21 | 998 | 2.29 | 1160 nM | 2.44 µM | 1.72 µM | 3.19 µM | 1470 | 3.67 | 4620 nM | 28.5 µM | 1.86 | 3.97 | 1540 | 5.05 | 1160 | 2.58 | 1310 | 2.84 | 1840 | 3.79 |
| CCSc1nc(=S)[nH]c2[nH]ncc12 | 98300 | > 100 | 93600 nM | > 100 µM | 88.9 µM | > 100 µM | 97800 | > 100 | 26000 nM | 60.8 µM | > 100 | > 100 | > 100000 | > 100 | 49300 | > 100 | 46100 | > 100 | > 100000 | > 100 |
| CN(C)c1ccc2[nH]c(O)c(C=Nc3ccc(S(N)(=O)=O)cc3)c2c1 | > 25000 | > 25 | > 25000 nM | > 25 µM | > 25 µM | > 25 µM | > 21900 | > 25 | > 25000 nM | > 25 µM | > 25 | > 25 | > 25000 | > 25 | > 25000 | > 25 | > 25000 | > 25 | > 25000 | > 25 |
| N#C/C(=C\c1ccc(Br)cc1)n1nnc2cc(F)c(F)cc21 | 1370 | 2.77 | 1900 nM | 3.63 µM | 2.16 µM | 5.56 µM | 1550 | 3.32 | 2710 nM | 8.3 µM |  |  | 2700 | 8.65 | 1550 | 2.98 | 1350 | 3.25 | 1740 | 4.51 |
| O=C1C=CC(=O)N1c1ccc2c(c1)Cc1cc(NC(=O)C(F)(F)F)ccc1-2 |  | 23.7 |  | 16.4 µM |  | 7.75 µM |  | 25.8 |  | 51.9 µM |  | 35.8 |  | > 100 |  | 32.7 |  | 11.3 |  | 31.6 |
| Cc1cc(Nc2ncc(Cl)c(Nc3ccccc3S(=O)(=O)C(C)C)n2)c(OC(C)C)cc1C1CCNCC1 | 1270 | 2.64 | 1590 nM and 1330 nM | 2.94 µM and 2.61 µM | 1.42 µM and 1.33 µM | 2.76 µM and 2.61 µM | 776 | 2.61 | 1660 nM and 1940 nM and 1610 nM | 5.25 µM and 5.34 µM and 4.48 µM | 1.24 | 2.81 | 1550 | 3.7 | 1360 | 2.71 | 1520 | 3.06 | 4470 |  |
| CCC[C@H](Nc1nc(-c2ccc(NC(=O)NCC)c(OC)c2)ncc1C)c1cccnc1 | 41.5 | 20 | 72.1 nM | 35.2 µM | 14.3 µM | 55.1 µM | 42.5 | > 88.4 | 34.5 nM |  | 0.82 | 28.8 | 35.9 | 13.1 | 41.5 | 13.8 | 34.5 | 0.868 | 41.3 | 26 |
| CC(=O)NC(Cc1c[nH]c2ccccc12)C(=O)O (configuration not stated) |  | > 100 |  | > 100 µM |  | > 100 µM |  | > 100 |  | > 100 µM |  | > 100 |  |  |  | > 100 |  | > 100 |  | > 100 |
| c1cncc(-c2cc(-c3cc(-c4cccnc4)n[nH]3)[nH]n2)c1 |  | > 100 |  | > 100 µM |  | > 100 µM |  | > 100 |  | > 100 µM |  | > 100 |  | > 100 |  | > 100 |  | > 100 |  | > 100 |
| O=C(/C=C/C12c3ccccc3C(c3ccccc31)C1C(=O)NC(=O)C12)c1ccco1 (configuration not stated) | 1790 | 3.48 | 3630 nM | 12.3 µM | 3.7 µM | 10.9 µM | 2590 | 7.22 | 4160 nM | 30.2 µM | 4.4 | 15.6 | 2160 | 7.63 | 1850 | 3.76 | 1840 | 3.75 | 2890 | 7.53 |
| N#Cc1c(N)nc(N2CCOCC2)c(C#N)c1-c1cccc(O)c1 | 38100 | 95.1 |  |  |  |  | > 100000 | > 100 | 40700 nM | > 100 µM | > 100 | > 100 | > 100000 | > 100 | > 100000 | > 100 |  |  | 89900 | > 100 |
| CN1CCN(Cc2ccc(NC(=O)c3[nH]ncc3Nc3ccnc4ccsc34)cc2)CC1 | 2010 | 4.76 | 2660 nM | 9.9 µM | 4.97 µM | 23.1 µM | 2600 | 12 | 2090 nM | 14.4 µM | 11.6 | 30 | 2090 | 7.93 | 1330 | 4.59 | 1980 | 13.5 | 4300 | 15.9 |
| COc1cc(N)ccc1Nc1c2ccccc2nc2ccccc12 | 11500 | 27 | 3360 nM | 14.3 µM | 14.6 µM | 30.2 µM | 3550 | 13.5 | 14300 nM | 44.3 µM | 20.2 | 44 | 2210 | > 28.5 | 5270 | 35.4 | 17900 | 51.3 | 15300 | 32.4 |
| Fc1ccc(Nc2ccc3cc(OCCCN4CCOCC4)ccc3n2)cc1F | 2450 | 7.32 | 4200 nM | 30.7 µM |  |  | 2120 | 4.4 | 3060 nM | 9.2 µM | 2.77 | 6.88 | 3450 | > 100 | 1600 | 3.09 | 2150 | 5.37 | 7280 | 52.1 |
